Data taken from the supplement of paper PMC9663587.

What was measured:
[1] = tested on: CAL120; test: GRmax, 72 h; higher = less effect;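 further: breast cell lines in 384-well plates, nine doses across a 10^4 range, Dye Drop imaging of viable cells vs DMSO and time-zero plates, GR 0 means no net growth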
[2] = tested on: HCC1395; test: GRmax, 72 h; higher = less effect;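 further: breast cell lines in 384-well plates, nine doses across a 10^4 range, Dye Drop imaging of viable cells vs DMSO and time-zero plates, GR 0 means no net growth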
[3] = tested on: HCC1954; test: GRmax, 72 h; higher = less effect;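 further: breast cell lines in 384-well plates, nine doses across a 10^4 range, Dye Drop imaging of viable cells vs DMSO and time-zero plates, GR 0 means no net growth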
[4] = tested on: HCC202; test: GRmax, 72 h; higher = less effect;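 further: breast cell lines in 384-well plates, nine doses across a 10^4 range, Dye Drop imaging of viable cells vs DMSO and time-zero plates, GR 0 means no net growth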
[5] = tested on: HCC70; test: GRmax, 72 h; higher = less effect
[6] = tested on: HTERT_HME1; test: GRmax, 72 h; higher = less effect
[7] = tested on: SUM190PT; test: GRmax, 72 h; higher = less effect
[8] = tested on: HCC1428; test: area over the GR curve, 72 h; higher = more effect;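 further: Dye Drop or Deep Dye Drop imaging of viable cells in 384-well plates (Hoechst nuclei, LIVE/DEAD dye), nine half-log doses, GR normalized to DMSO controls and time-zero plates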
[9] = tested on: HCC1500; test: area over the GR curve, 72 h; higher = more effect;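 further: Dye Drop or Deep Dye Drop imaging of viable cells in 384-well plates (Hoechst nuclei, LIVE/DEAD dye), nine half-log doses, GR normalized to DMSO controls and time-zero plates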
[10] = tested on: MDAMB157; test: area over the GR curve, 72 h; higher = more effect;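 further: Dye Drop or Deep Dye Drop imaging of viable cells in 384-well plates (Hoechst nuclei, LIVE/DEAD dye), nine half-log doses, GR normalized to DMSO controls and time-zero plates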

Compound | GRmax, 72 h [1] [GR] | GRmax, 72 h [2] [GR] | GRmax, 72 h [3] [GR] | GRmax, 72 h [4] [GR] | GRmax, 72 h [5] [GR] | GRmax, 72 h [6] [GR] | GRmax, 72 h [7] [GR] | area over the GR curve [8] [GR] | area over the GR curve [9] [GR] | area over the GR curve [10] [GR] | GRmax, 72 h ([1]; main component drawn) [GR] | GRmax, 72 h ([2]; main component drawn) [GR] | GRmax, 72 h ([3]; main component drawn) [GR] | GRmax, 72 h ([5]; main component drawn) [GR] | GRmax, 72 h ([6]; main component drawn) [GR] | area over the GR curve ([8]; main component drawn) [GR] | area over the GR curve ([9]; main component drawn) [GR] | area over the GR curve ([10]; main component drawn) [GR]
NC(=O)Nc1cc(-c2cccc(F)c2)sc1C(=O)N[C@H]1CCCNC1 [AZD7762] (max 10 µM) | -0.495 | -0.69 | -0.398 | -0.277 | -0.7 | -0.478 | -0.341 | 0.323 | 0.614 | 0.984 | – | – | – | – | – | – | – | –
Cc1nc(NC(=O)N2CCC[C@H]2C(N)=O)sc1-c1ccnc(C(C)(C)C(F)(F)F)c1 [Alpelisib/BYL719] (max 10 µM) | 0.608 | 0.637 | -0.341 | 0.0449 | 0.0981 | 0.307 | 0.532 | 0.0107 | -0.0097 | 0.101 | – | – | – | – | – | – | – | –
Cc1c(N)nc([C@H](CC(N)=O)NC[C@H](N)C(N)=O)nc1C(=O)N[C@H](C(=O)N[C@H](C)[C@@H](O)[C@H](C)C(=O)N[C@H](C(=O)NCCc1nc(-c2nc(C(=O)NCCC[S+](C)C)cs2)cs1)[C@@H](C)O)[C@@H](OC1OC(CO)C(O)C(O)C1OC1OC(CO)C(O)C(OC(N)=O)C1O)c1cnc[nH]1 (stereo partly specified) [Bleomycin] (max 10 µM) | – | – | – | – | – | – | – | – | – | – | 0.0886 | -0.402 | -0.0884 | -0.115 | -0.111 | 0.178 | 0.147 | 0.281
Nc1cc(C(F)(F)F)c(-c2cc(N3CCOCC3)nc(N3CCOCC3)n2)cn1 [Buparlisib/NVP-BKM120] (max 10 µM) | -0.272 | -0.506 | -0.458 | -0.0463 | -0.727 | -0.241 | -0.342 | 0.344 | 0.512 | 0.302 | – | – | – | – | – | – | – | –
COc1cc2nccc(Oc3ccc(NC(=O)C4(C(=O)Nc5ccc(F)cc5)CC4)cc3)c2cc1OC [Cabozantinib] (max 10 µM) | 0.257 | 0.114 | 0.639 | 0.731 | -0.0911 | -0.105 | -0.0122 | 0.0108 | -0.0192 | 0.21 | – | – | – | – | – | – | – | –
COc1cc2c(Oc3ccc4[nH]c(C)cc4c3F)ncnc2cc1OCCCN1CCCC1 [Cediranib/AZD2171] (max 10 µM) | -0.124 | -0.482 | -0.32 | 0.364 | -0.326 | 0.0275 | 0.893 | 0.189 | 0.0909 | 0.349 | – | – | – | – | – | – | – | –
Cc1cc(Nc2ncc(Cl)c(Nc3ccccc3S(=O)(=O)C(C)C)n2)c(OC(C)C)cc1C1CCNCC1 [Ceritinib/LDK378] (max 10 µM) | -0.432 | -0.627 | -0.445 | -0.803 | -0.881 | -0.356 | -0.375 | 0.295 | 0.274 | 0.46 | – | – | – | – | – | – | – | –
N.N.[Cl][Pt][Cl] [Cisplatin] (max 10 µM) | 0.188 | -0.222 | -0.0741 | – | -0.683 | -0.218 | – | 0.221 | 0.0866 | 0.117 | – | – | – | – | – | – | – | –
Cc1nc(Nc2ncc(C(=O)Nc3c(C)cccc3Cl)s2)cc(N2CCN(CCO)CC2)n1 [Dasatinib] (max 10 µM) | 0.176 | -0.337 | 0.274 | -0.197 | -0.579 | -0.0749 | 0.423 | 0.256 | 0.925 | 0.518 | – | – | – | – | – | – | – | –
